From patent US11485751B2, “Apramycin derivatives” (WAYNE STATE UNIVERSITY, priority 2017, dated 2022)
Values after ≈ are worked out from the molar mass of the structure shown. Read-outs that look alike come from different tables or passages of the source.

Experiments:
[1] = test system: AG212, Escherichia coli ATCC25922; experiment: MIC reference strain AG212; type: cell-based; conditions: for MIC: Escherichia coli
Source text: (§1) Minimal inhibitory concentrations (MIC) have been determined by broth microdilution assays (CLSI. Methods for Dilution Antimicrobial Susceptibility Tests for Bacteria That Grow Aerobically; Approved Standard—Tenth Edition. CLSI document M07-A10. Wayne, Pa.: Clinical and Laboratory Standards Institute; 2015.).
(§2) Table 4 and 5 show the antibacterial activity of the compounds of the invention against bacterial reference strains (table 4) and against representative clinical isolates (table 5).
(§3) Legend to Tables: GEN, gentamicin; AMK, amikacin; PLZ, plazomicin; APR, apramycin; AG212, Escherichia coli ATCC25922; AG215, Klebsiella pneumonia; AG220, Pseudomonas aeruginosa ATCC27853; AG225, Acinetobacter baumannii pittii; AG290, Enterobacter cloacae; […], Mycobacterium smegmatis. MICs for AG192 have been determined in the presence of 0.5 μg/mL of ampicillin in the medium to mimic the synergistic effect of aminoglycoside and β-lactam antibiotics combination therapy in the treatment of Enterococcus infections in humans.

[2] = test system: AG215, Klebsiella pneumonia; experiment: MIC reference strain AG215; type: cell-based; conditions: for MIC: Klebsiella pneumoniae, read-out: MIC AG215 K. pneumonia
Source text: as §1, §2, §3

bacterial ribosomes = experiment: in-vitro translation assay, bacterial ribosomes; type: biochemical
Source text: (§4) IC50 values for bacterial, human chimeric, and rabbit reticulocyte ribosomes have been determined by in-vitro translation assays as described previously (Proc. Nat. Ac. Sci USA 2012, 109(27):10984-10989).
(§5) Minimal inhibitory concentrations (MICs, […]) against clinical isolates from Institute of Medical Microbiology, Univ. Zurich, and the IC50 values for bacterial, human mitochondrial and human cytosolic ribosomes are indicated.

AG038 MRSA = experiment: Antibacterial activity, clinical isolate AG038; type: cell-based; design: unit not given here
Source text: as §1, §2

[3] = test system: AG225, Acinetobacter baumannii pittii; experiment: MIC reference strain AG225; type: cell-based; conditions: for MIC: Acinetobacter baumannii, read-out: MIC AG225 A. baumannii
Source text: as §1, §2, §3

[4] = test system: human cytosolic ribosomes; experiment: in-vitro translation assay, human cytosolic ribosomes; type: biochemical
Source text: as §4, §5

[5] = test system: AG220, Pseudomonas aeruginosa ATCC27853; experiment: MIC reference strain AG220; type: cell-based; conditions: for MIC: Pseudomonas aeruginosa
Source text: as §1, §2, §3

WT clinical isolates = experiment: MIC broth microdilution, WT; type: cell-based; conditions: wild type; for MIC: read-out: MIC WT, clinical isolates, IMM Univ. Zurich
Source text: as §1, §5
(§6) Minimal inhibitory concentrations (μg/ml) against clinical isolates from Institute of Medical Microbiology, Univ. Zurich, and the IC50 values for bacterial, human mitochondrial and human cytosolic ribosomes are indicated.
(§7) The Minimal inhibitory concentrations (MICs, μg/ml) against clinical isolates from Institute of Medical Microbiology, Univ Zurich, and the IC50 values for bacterial, human mitochondrial and human cytosolic ribosomes are indicated.

AG001 E. coli WT = experiment: Antibacterial activity, clinical isolate AG001; type: cell-based; design: unit not given here
Source text: as §1, §2

[6] = test system: AG290, Enterobacter cloacae; experiment: MIC reference strain AG290; type: cell-based; conditions: for MIC: Enterobacter cloacae, read-out: MIC AG290 E. cloacae
Source text: as §1, §2, §3

AG031 P. aer. APH(3′)-II = experiment: Antibacterial activity, clinical isolate AG031; type: cell-based; design: unit not given here
Source text: as §1, §2

[7] = test system: human mitochondrial ribosomes; experiment: in-vitro translation assay, human mitochondrial (human chimeric) ribosomes; type: biochemical
Source text: as §4, §5

[8] = test system: Engineered E. coli pH430 WT; experiment: Activity, engineered E. coli pH430 WT; type: cell-based; conditions: wild type
Source text: as §1

[9] = test system: Engineered E. coli AG103 armA; experiment: Activity against G1405-methylated 16S-rRNA, E. coli AG103 armA; type: cell-based
Source text: as §1

isolates carrying apmA = experiment: MIC broth microdilution, apmA; type: cell-based; conditions: apmA resistance gene
Source text: Minimal inhibitory concentrations (MIC) have been determined by broth microdilution assays (CLSI. Methods for Dilution Antimicrobial Susceptibility Tests for Bacteria That Grow Aerobically; Approved Standard—Tenth Edition. CLSI document M07-A10. Wayne, Pa.: Clinical and Laboratory Standards Institute; 2015.). […]
as §6, §7

ATCC19977 M. abcessus = experiment: MIC reference strain ATCC19977; type: cell-based; conditions: for MIC: read-out: MIC ATCC19977 M. abcessus
Source text: as §1, §2

[10] = test system: Engineered E. coli pH424 armA; experiment: Activity against G1405-methylated 16S-rRNA, E. coli pH424 armA; type: cell-based
Source text: as §1

AG173 E. coli AAC(3)-IV = experiment: Antibacterial activity, clinical isolate AG173; type: cell-based
Source text: as §1, §2

[11] = test system: Engineered E. coli pH427 rmtF; experiment: Activity against G1405-methylated 16S-rRNA, E. coli pH427 rmtF; type: cell-based
Source text: as §1

AG055 E. coli WT = experiment: Antibacterial activity, clinical isolate AG055; type: cell-based; design: unit not given here
Source text: as §1, §2

[12] = test system: SZ380, Mycobacterium smegmatis; experiment: MIC reference strain SZ380; type: cell-based; conditions: reference strain
Source text: as §1, §2, §3

[13] = test system: AG033 P. aer. APH(3′)-II AAC(6′)-I; experiment: Antibacterial activity, clinical isolate AG033; type: cell-based; design: unit not given here
Source text: as §1, §2

[14] = test system: AG039 MRSA AAC(6′)-I ANT(4′)-I; experiment: Antibacterial activity, clinical isolate AG039; type: cell-based
Source text: as §1, §2

[15] = test system: clinical isolates carrying AAC(3)-IV; experiment: MIC broth microdilution, AAC(3)-IV; type: cell-based; conditions: clinical isolates, IMM Univ. Zurich, AAC(3)-IV
Source text: as §1, §5, §6, §7

[16] = test system: Engineered E. coli pH426 rmtC; experiment: Activity against G1405-methylated 16S-rRNA, E. coli pH426 rmtC; type: cell-based
Source text: as §1

AG003 E. coli AAC(3)-II = experiment: Antibacterial activity, clinical isolate AG003; type: cell-based
Source text: as §1, §2

AG032 P. aer. APH(3′)-II = experiment: Antibacterial activity, clinical isolate AG032; type: cell-based; design: unit not given here
Source text: as §1, §2

[17] = test system: AG042 MRSA AAC(6′)-I ANT(4′)-I APH(2′); experiment: Antibacterial activity, clinical isolate AG042; type: cell-based; design: unit not given here
Source text: as §1, §2

[18] = test system: Engineered E. coli pH425 rmtB; experiment: Activity against G1405-methylated 16S-rRNA, E. coli pH425 rmtB; type: cell-based
Source text: as §1

[19] = reference strain ATCC25922, read-out: MIC AG212 E. coli
[20] = ATCC27853, reference strain ATCC27853, read-out: MIC AG220 P. aeruginosa

| Compound | IC50 (bacterial ribosomes) [µM] | Antibacterial activity AG038 MRSA (AG038 MRSA) | IC50 [4] [µM] | MIC (WT clinical isolates) [µg/mL] | Antibacterial activity AG001 E. coli WT (AG001 E. coli WT) | Antibacterial activity AG031 P. aer. APH(3′)-II (AG031 P. aer. APH(3′)-II) | IC50 [7] [µM] | Activity E. coli pH430 WT [8] | Activity E. coli AG103 armA [9] | Activity E. coli pH424 armA [10] | Antibacterial activity AG173 E. coli AAC(3)-IV (AG173 E. coli AAC(3)-IV) | Activity E. coli pH427 rmtF [11] | Antibacterial activity AG055 E. coli WT (AG055 E. coli WT) | Antibacterial activity AG033 P. aer. APH(3′)-II AAC(6′)-I [13] | Antibacterial activity AG039 MRSA AAC(6′)-I ANT(4′)-I [14] | Activity E. coli pH426 rmtC [16] | Antibacterial activity AG003 E. coli AAC(3)-II (AG003 E. coli AAC(3)-II) | Antibacterial activity AG032 P. aer. APH(3′)-II (AG032 P. aer. APH(3′)-II) | Antibacterial activity AG042 MRSA AAC(6′)-I ANT(4′)-I APH(2′) [17] | Activity E. coli pH425 rmtB [18] | further results |
| --- | --- | --- | --- | --- | --- | --- | --- | --- | --- | --- | --- | --- | --- | --- | --- | --- | --- | --- | --- | --- | --- |
| CNC1C(OC2OC(CO)C(N)C(O)C2O)OC2CC(N)C(OC3C(N)CC(N)C(O)C3OCC(O)CN)OC2C1O (stereo not drawn) [DC212] | 0.1 | 4 | 112 | 4 (≈ 6.53 µM) | 8 | 8 | 158 | – | – | – | – | – | – | – | – | – | – | – | – | – | MIC ([1]; ATCC25922, read-out: MIC AG212 E. coli): 4 µg/mL; MIC [2]: 2 µg/mL; MIC [3]: 4 µg/mL; MIC ([5]; ATCC27853, read-out: MIC AG220 P. aeruginosa): 4 µg/mL; MIC [6]: 4 µg/mL |
| CNC1C(OC2OC(CO)C(N)C(O)C2O)OC2CC(N)C(OC3C(N)CC(N)C(O)C3F)OC2C1O (stereo not drawn) [DC168, 5-Deoxy-5-epi-fluoro apramycin] | 0.05 | 2-4 | 28 | – | 8 | 8-16 | 30 | 2 | 1 | 2 | 128 | 2 | 4 | 32 | 2-4 | 2 | 4 | 8-16 | 4 | 2 | MIC AG212 E. coli ([1]; reference strain ATCC25922): 4 µg/mL; MIC apmA (isolates carrying apmA): 4 µg/mL (≈ 7.39 µM); MIC ATCC19977 M. abcessus (ATCC19977 M. abcessus; reference strain): 1 µg/mL (≈ 1.85 µM); MIC AG215 K. pneumonia ([2]; reference strain): 1 µg/mL; MIC SZ380 M. smegmatis [12]: 0.125 µg/mL; MIC AAC(3)-IV [15]: >32 µg/mL; MIC AG225 A. baumannii ([3]; reference strain): 4 µg/mL; MIC AG220 P. aeruginosa ([5]; reference strain ATCC27853): 4 µg/mL; MIC WT (WT clinical isolates; clinical isolates, IMM Univ. Zurich): 2 µg/mL (≈ 3.69 µM); MIC AG290 E. cloacae ([6]; reference strain): 4 µg/mL |
| CN[C@@H]1[C@@H](O)[C@@H](O[C@@H]2[C@@H](O)[C@H](O[C@H]3OC(CNCCO)=CC[C@H]3N)[C@@H](N)C[C@H]2NC(=O)[C@@H](O)CCN)OC[C@]1(C)O [PLZ, plazomicin, reference compound] | – | 2-4 | – | – | 2-4 | 4 | – | 0.5 | >32 | – | – | – | 2-4 | 16-32 | 2-4 | – | 2-4 | 4 | 2 | – | MIC [1, 19]: 0.5 to 1 µg/mL; MIC (ATCC19977 M. abcessus): 4 µg/mL (≈ 6.75 µM); MIC ([2]; reference strain): 0.25 to 0.5 µg/mL; MIC ([3]; reference strain): 2 µg/mL; MIC [5, 20]: 2 to 4 µg/mL; MIC ([6]; reference strain): 0.5 µg/mL |
| CNC1C(OC2OC(CO)C(N)C(O)C2O)OC2CC(N)C(OC3CC(O)C(N)CC3N)OC2C1O (stereo not drawn) [DC169, 5-Deoxy-apramycin] | 0.06 | 2-4 | 42 | 4 (≈ 7.64 µM) | 4 | 8 | 45 | 4 | 1 | 2 | 32 | 4 | 4 | 16 | 2 | 4 | 4 | 8 | 4 | 4 | MIC [1, 19]: 4 µg/mL; MIC (isolates carrying apmA): 16 µg/mL (≈ 30.6 µM); MIC (ATCC19977 M. abcessus): 1 µg/mL (≈ 1.91 µM); MIC ([2]; reference strain): 2 µg/mL; MIC ([12]; Mycolicibacterium smegmatis, read-out: MIC SZ380 M. smegmatis): 0.125 µg/mL; MIC ([15]; read-out: MIC AAC(3)-IV): > 32 µg/mL; MIC ([3]; reference strain): 4 µg/mL; MIC [5, 20]: 4 µg/mL; MIC ([6]; reference strain): 2 µg/mL |
